Experimental data reported in patent US5478807A, “Use of relaxin in the treatment of bradycardia” (Genentech, Inc., priority 1992, dated 1995).
Like-named read-outs stand apart in the source and are kept apart here.

Experiments:
[1] = tested on: relaxin receptors in the rat heart; assay: Effect of steroid hormones on relaxin receptors in the rat heart; assay type: in vivo; conditions: steroid treatment 10 μg s.c.; sacrificed 7 days later
Description: For hormonal control experiments, 10-11-week-old female rats were ovariectomized for two weeks and then injected s.c. with 10 μg estradiol cyclopentyl propionate in a […] vehicle or with vehicle alone. Likewise, 10-11-week-old male rats were castrated for 2 weeks and were injected with either 10 μg estradiol cyclopentyl propionate, 10 μg testosterone, or vehicle alone. The rats were sacrificed 7 days later by asphyxiation with CO2. The relevant tissues were removed rapidly and frozen in powdered dry ice immediately.
The frozen tissues were sectioned to 16 μm thickness using a Reichert-Jung Model 2800 Frigocut cryostat (Cambridge Instruments). Tissue sections were fixed onto gelatin/chromium potassium sulfate treated microscope slides by warming, and immediately refrozen and stored at -80° C. overnight or longer.
For binding of ^32 P-relaxin to the tissue sections, frozen slides were prewashed with binding buffer (Hank's balanced salt solution supplemented with 20 mMHEPES, pH 7.2, 1 mg/ml BSA, 0.1 mM PMSF, and 1 μg/ml leupeptin) at 4° C. for 1.5-2 hours. The tissue sections were then covered with 600-700 μl of 100 pM ^32 P-relaxin with or without excess unlabeled relaxin and other competing agents as specificity control, and incubated at 4° C. for one hour. The slides were washed 3 times for 15-30 minutes each, with binding buffer. […]

rat mesocaecum venules = conditions: local application; cited from earlier work
[2] = obliterative peripheral arterial disease; cited from earlier work
[3] = cited from earlier work
rat isolated heart = assay: Chronotropy and inotropy in Langendorff rat isolated heart
Description: Male Sprague-Dawley rats weighing 300-350 g (Charles River, Portage, Ind., USA) were anesthetized with 60 mg/kg pentobarbital sodium (Fort Dodge Laboratories, Inc., Fort Dodge, Iowa, USA) intraperitoneally. Following thoracotomy, the hearts were removed and placed into 4° C. […] Any associated lung and thymic tissue were trimmed off and the ascending aorta cannulated. The heart was then perfused at 10 ml/min with Krebs-Henseleit solution at 37° C. The perfusion pressure was constantly monitored. A small incision was made in the left atrium and a water-filled balloon (Hugo Sachs Electronik, March-Hugstetten, Germany) connected to a pressure transducer (Gould Electronics, Valley View, Ohio, USA) was placed into the left ventricle for the measurement of left ventricular developed pressure (LVDP). From this pressure, recording heart rate was electronically derived on a Grass polygraph (Quincy, Mass., USA).
In six experiments, after a 15-20 minutes stabilization period, the atria were removed. The heart rate was then allowed to stabilize at its new rate before the administration of relaxin. In three experiments, the atria were left intact.
Relaxin was administered as 50 μl bolus injections into the perfusion fluid immediately prior to entering the heart. Cumulative dose-response curves were constructed using human recombinant H2 relaxin (Genentech, Inc. South San Francisco, Calif., USA). […] Serial dilutions of both drugs were made using 0.9% (w/v) saline solution.
Statistical significance was determined by a two-tailed Student's unpaired t-test and P<0.005 was taken as significant.

Compound: estradiol cyclopentyl propionate [Estrogen]
- effect on relaxin binding in the heart [1]: had no effect on relaxin binding in the heart

Compound: porcine relaxin
- effect on venules and vasoconstriction (rat mesocaecum venules): dilate venules and antagonized the vasoconstrictive effects of norepinephrine and promethazine
- healing of Raynaud's lesions [2]: beneficial in healing Raynaud's lesions
- blood pressure ([3]; injection of up to 50 μg, anesthetized rats): did not affect blood pressure
- arterial pressure ([3]; intracerebroventricular injection, urethane anesthetized rat): increase arterial pressure
- arterial pressure ([3]; intravenous injection, urethane anesthetized rats): increases arterial pressure
- heart rate ([3]; intravenous or intracerebroventricular injection, urethane anesthetized rat): increase heart rate

Compound: C[C@]12CC[C@H]3[C@@H](CCC4=CC(=O)CC[C@@]43C)[C@@H]1CC[C@@H]2O [testosterone]
- effect on relaxin binding in the heart [1]: did not cause any changes in relaxin binding in the heart

Compound: CNCC(O)c1ccc(O)c(O)c1.O=C(O)C(O)C(O)C(=O)O (centres unmarked) [adrenaline, Adrenaline bitartrate, reference compound]
- transient increases in coronary perfusion pressure (rat isolated heart): 5-10 mmHg
- left ventricular developed pressure (LVDP) (rat isolated heart; intact preparations, 4.5 pMol, basal 83±4 mmHg): 195±10 mmHg
- duration of chronotropic effect (rat isolated heart; relaxin: single bolus administration of 830 pMol): short-lasting
